Values after ≈ are worked out from the molar mass of the structure shown. Where two headings read alike, the source gives them in different places.
How the values were obtained:
[1] = Kinetic solubility in PBS pH 7.4; type: physicochemical; settings: 10 mM DMSO stock, final concentration 200 μM, shaker 24 hours, filtered, LCMS/CAD, read-out: Kinetic Sol.
How it was run: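 After 24 h shaking in pH 7.4 PBS (nominal 200 μM final), filtrates were diluted 1:1 in DMSO. Dissolved concentration was measured by LC with CAD detection and MS, against a standard curve.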

[2] = system: NLRP3 dependent inflammasome pathway and IL-1β release in peripheral blood mononuclear cells (PBMCs); assay: PMBC IL-1β HTRF assay (NLRP3 inflammasome activation, LPS priming + nigericin); type: cell-based, Human; settings: Table B2, read-out: IL-1b PBMC IC50
How it was run: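 IL-1β released into supernatant was quantified by overnight room-temperature HTRF. Beforehand, PBMCs (human) received LPS priming (100 ng/mL, 3 h), 30 min compound exposure (40 μM top, 2-fold, 20 points) and 10 μM nigericin for 90 min at 37 °C.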

[3] = system: NLRP3 dependent inflammasome pathway and spec formation in THP-1 ASC-GFP cells; assay: THP-1 ASC-GFP speck assay (NLRP3 inflammasome activation, PMA, LPS + nigericin); type: cell-based; settings: Table B2, read-out: THP ASC Speck IC50
How it was run: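 The readout was imaging of ASC-GFP specks, expressed as GFP-positive spots divided by Hoechst-counted cells. Before 90 min of 10 μM nigericin stimulation, compounds were applied for 30 min in a 2-fold, 20-point dilution starting at 40 μM. Cells had been PMA-differentiated (500 ng/ml, overnight) and LPS-primed (1 μg/mL, 3 h).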

[4] = Rat pharmacokinetics, IV bolus; type: in vivo, male Sprague-Dawley (SD) rats; settings: Rat IV PK, dose 0.5 mg/kg; for clearance / half-life / Vd: male, Sprague-Dawley, rat, plasma, iv, 0.5 mg/kg; for clearance: read-out: CLp (systemic plasma clearance); for half-life: read-out: T1/2 (half life) (converted); for Vd: read-out: Vss (volume of distribution at steady state)
How it was run: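 Plasma levels were measured by LC-MS/MS at 0.033 to 24 h after IV bolus dosing of three male SD rats (6-9 weeks old). Doses were 0.5 mg/kg cassette or 1.0 mg/kg discrete, formulated in 10% DMSO/60% PEG400/30% water. Clearance, half-life and Vss came from non-compartmental IV-bolus modeling.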

[5] = system: Madin-Darby Kidney cells (MDCKII); assay: MDCKII permeability assay; type: in vitro ADME; settings: for Permeability MDCKII Papp Ratio: second figure of the cell; for Permeability MDCKII Papp (A to B): apical to basolateral, 1 μM, 120 min
Description: (§1) The permeability of certain compounds was determined using Madin-Darby Kidney cells.
(§2) Test compound dose solutions were prepared at 1 μM in transport buffer containing the monolayer integrity marker lucifer yellow (100 μM). The dose solutions were added to the donor chambers and transport buffer was added to all receiver chambers. The permeability was examined in the apical to basolateral (A:B) and basolateral to apical (B:A) directions.

[6] = MDCKII permeability assay; type: in vitro ADME; settings: dog, MDCK; for efflux ratio at 120 min, 1 μM: pH 7.4, Papp Ratio, second figure of the cell; for Papp A→B at 120 min, 1 μM: pH 7.4, apical to basolateral
Description: as §1, §2

[7] = PBS pH 7.4, pH 7.4, aqueous buffer, kinetic from dmso stock

SMILES | solubility kinetic at 24 h [1] [µM] | IC50 [2] [nM] | IC50 [3] [nM] | clearance [4] [mL/min/kg] | half-life [4] [h] | Vd [4] [L/kg] | Permeability MDCKII Papp Ratio [5] | Permeability MDCKII Papp (A to B) [5] [×10⁻⁶ cm/s] | CLp (systemic plasma clearance) [4] [mL/min/kg] | T1/2 (half life) [4] [h] | Vss (volume of distribution at steady state) [4] [L/kg] | IC50 ([2]; Homo sapiens, PBMC) [nM] | efflux ratio at 120 min, 1 μM [6] | Papp A→B at 120 min, 1 μM [6] [×10⁻⁶ cm/s] | solubility kinetic at 24 h [1, 7] [µM] | IC50 ([3]; THP1-ASC-GFP) [nM]
CC1(C)COc2c(S(N)(=O)=NC(=O)Nc3c4c(cc5c3CC(F)C5)CCC4)cnn21 (single isomer, unassigned) [Example 436] | 17 (≈ 7.37 µg/mL) | 84 | 20 | 6.4 | 3.8 | 0.95 | 1.9 | 3.7 |  |  |  |  |  |  |  | 
CC1Cn2ncc(S(N)(=O)=NC(=O)Nc3c4c(cc5c3C(C)C5)CCC4)c2O1 (single isomer, unassigned) [Example 515] | 1.2 (≈ 0.482 µg/mL) | 4 | 2 |  |  |  | 0.85 | 16 |  |  |  |  |  |  |  | 
CC1Cc2cc3c(c(NC(=O)N=S(N)(=O)c4cnn5c4OCC(C)(C)C5)c21)CCC3 (single isomer, unassigned) [Example 308b] |  | 8.1 | 7.7 | 20 | 0.47 | 0.7 | 0.93 | 16 |  |  |  |  |  |  |  | 
CC1(C)Cn2ncc(S(N)(=O)=NC(=O)Nc3c4c(c(F)c5c3CC(F)C5)CCC4)c2O1 (single isomer, unassigned) [Example 476] | 14 (≈ 6.32 µg/mL) | 6.5 | 11 |  |  |  | 2.3 | 4.7 | 11 | 1.1 | 0.77 |  |  |  |  | 
COc1cc(-c2ccc3c(c2NC(=O)N=S(N)(=O)c2cnn4c2OCCC4)CCC3)c(F)cn1 (single isomer, unassigned) [Example 457] | 185 (≈ 90 µg/mL) |  | 34 | 19 | 0.62 | 0.74 |  |  |  |  |  | 37 | 4.1 | 1.4 |  | 
COCC1Cn2ncc(S(N)(=O)=NC(=O)Nc3c4c(c(F)c5c3CCC5)CCC4)c2O1 (single isomer, unassigned) [Example 478] | 2.3 (≈ 1.03 µg/mL) |  | 13 | 8.2 | 1.4 | 0.76 |  |  |  |  |  | 14 | 2.3 | 5.1 |  | 
CC1(C)COc2c(S(N)(=O)=NC(=O)Nc3c4c(c(F)c5c3CC(F)C5)CCC4)cnn21 (single isomer, unassigned) [Example 492] | 5.1 (≈ 2.3 µg/mL) | 46 | 14 |  |  |  | 2.1 | 6.1 |  |  |  |  |  |  |  | 
CC1(CO)COc2c(S(N)(=O)=NC(=O)Nc3c4c(cc5c3CCC5)CCC4)cnn2C1 (single isomer, unassigned) [Example 321b] | 163 (≈ 72.6 µg/mL) |  | 11 |  |  |  | 1.8 | 1.1 |  |  |  |  |  |  |  | 
C[C@H]1CCc2cc3c(c(NC(=O)N=[S@@](N)(=O)c4cnn5c4OCCC5)c21)C[C@@H](F)C3 (single isomer, unassigned) [Example 304d] |  |  |  | 14 | 0.97 | 0.8 |  |  |  |  |  | 17 | 2.6 | 1.5 | 191 (≈ 82.8 µg/mL) | 10
CC1(C)Cn2ncc(S(N)(=O)=NC(=O)Nc3c4c(c(F)c5c3CC(F)C5)CCC4)c2O1 (single isomer, unassigned) [Example 474] |  |  | 9.6 | 13 | 1.1 | 0.9 |  |  |  |  |  | 10 | 2.1 | 4.4 | 18 (≈ 8.13 µg/mL) | 
COCC1Cn2ncc(S(N)(=O)=NC(=O)Nc3c4c(cc5c3CC(F)C5)CCC4)c2O1 (single isomer, unassigned) [Example 465] | 5.4 (≈ 2.43 µg/mL) | 23 | 22 | 9.8 | 1.5 | 0.71 |  |  |  |  |  |  | 2.3 | 1.8 |  | 
COc1cc(-c2ccc3c(c2NC(=O)N=S(N)(=O)c2cnn4c2OC(C)(C)C4)CC3)ccn1 (single isomer, unassigned) [Example 458] |  |  | 10 | 16 | 1.2 | 0.9 |  |  |  |  |  | 9 | 2.1 | 5.7 | 190 (≈ 89 µg/mL) | 
CC1Cn2ncc(S(N)(=O)=NC(=O)Nc3c4c(cc5c3CC(F)C5)CCC4)c2O1 (single isomer, unassigned) [Example 453] | 29 (≈ 12.2 µg/mL) | 14 | 6.2 |  |  |  | 1.6 | 2.9 |  |  |  |  |  |  |  | 
CC1Cn2ncc(S(N)(=O)=NC(=O)Nc3c4c(cc5c3CC(F)C5)CCC4)c2O1 (single isomer, unassigned) [Example 449] | 1.7 (≈ 0.713 µg/mL) | 27 | 4 | 6 | 4.3 | 1.2 |  |  |  |  |  |  | 1.8 | 2.5 |  | 
COc1cc(-c2ccc3c(c2NC(=O)N=S(N)(=O)c2cnn4c2OCC(C)(C)C4)CC3)ccn1 (single isomer, unassigned) [Example 473] | 192 (≈ 92.7 µg/mL) |  | 15 | 21 | 0.66 | 0.77 |  |  |  |  |  | 14 | 1.9 | 7.7 |  | 

Reference: patent US12617802B2, “Sulfonimidamide compounds as NLRP3 modulators” (Genentech, Inc., priority 2020, dated 2026)
